From patent US5468758A, “Crystalline forms of endo-2,3-dihydro-N-(8-methyl)-8-azabicyclo[3.2.1]oct-3-yl)-2-oxo-1H-benz imidazole-1-carboxamides” (Boehringer Ingelheim Italia S.p.A., priority 1992, dated 1995)
Structures can show the parent of a compound that is named as a salt.

Key:
Assay type in all cases: physicochemical
[1] = Accelerated stability tests in tablets and capsules; details: for % degradation: tablets and capsules in PVC/PVDC blister with aluminium foil, hydrochloride monohydrate
Source text: (§1) Drug stability in these final compositions may be measured in accelerated stability tests or in long term real time stability tests. In accelerated stability tests, the above pharmaceutical compositions are exposed at high temperatures at different degrees of relative humidity for a period of time. Such tests are considered to be indicative of the stability of the composition at normal conditions. In long term real time stability studies the final compositions are exposed to normal conditions of storage at ambient temperatures at different degrees of relative humidity.
(*)according to H. Leven Berger Pharm. Act. Helv. 50 (1975) 88-91 it is
equivalent to 2 years storage at room temperature. Tablets and capsules
are packaged in PVC/PVDC blister with aluminium foil.
(*)according to "Guidelines for stability studies for Human Drugs and
Biologics" (1987) (USA/FDA) it is equivalent to 2 years at room
temperature. Tablets and capsules are packaged in PVC/PVDC blister with […]

[2] = Water loss on desiccation under vacuum; details: between room temperature and 60° C. under vacuum, most preferably 40° C., 0.1 mm Hg, 24 hours; in words
Experimental: Compounds 2a and 2b may be prepared by dissolving the compounds 1a and 1b, as free base, in a hot aqueous solvent, preferably a hot aqueous alkanol, by adding the required amount of gaseous hydrogen chloride, filtering the resulting solution and letting it cool to room temperature. In a preferred embodiment of the process according to the invention, compound 2a is prepared by using, as an hot aqueous alkanol, hot 85% aqueous ethanol. The crystals of compound 2a may be collected by vacuum filtration and are washed with a small amount of aqueous ethanol. In a preferred embodiment of the process according to the invention, compound 2b is prepared by using, as an hot aqueous alkanol, hot 95% aqueous isopropanol. The crystals of compound 2b may be collected by vacuum filtration and are washed with a small amount of aqueous isopropanol. […] Water content may be measured by usual techniques such as the Karl Fischer test. Alternatively, compounds 2a and 2b may be conveniently prepared by dissolving the anhydrous form of compounds 1a and 1b, as hydrochloride, in hot aqueous ethanol, preferably 85% ethanol (respectively in hot aqueous isopropanol, preferably 95% isopropanol) and allowing to cool the solution at room temperature; crystals of compound 2 a (respectively 2b), separated from the cooled solution, are collected by vacuum filtration and manipulated as previously described. […]

[3] = Milling studies (FRITSCH Pulverisette 14 Rotor Speed Mill)
Experimental: The milling process was performed by the FRITSCH Pulverisette 14 Rotor Speed Mill supplied with circular sieve stainless steel with trapezoidal 0.080 mm diameter openings. The samples were passed through the mill twice at 20.000 rpm motor speed. The sample is assayed for title and degradation products by TLC and HPLC, physical state by DSC, water content by TGA, particle size distribution by Mercury Instrusion Porosimetry. The mi 11ed compounds are formulated in capsules and tablets at very low dose level (0.5 mg) by direct mixing and direct compression manufacturing method, respectively.

[4] = Long-term real time stability tests in tablets and capsules; details: for % degradation: tablets and capsules in PVC/PVDC blister with aluminium foil, hydrochloride monohydrate
Source text: as §1
Tablets and capsules are packaged in PVC/PVDC blister with aluminium foil

[5] = Moisture sorption/desorption studies (hygrostat, storage at different temperatures and relative humidity); details: for water content (Table V): 11.2% RH, % on the weight of compound 1a
Experimental: The determination of the sorption isotherms was carried out in a hygrostat.
At suitable intervals, the sample was weighed by means of a sample balance. The atmosphere in the hygrostat and therefore around the sample of compound 1a (1b) and 2a (2b) was conditioned and kept by a saturated solutions of a suitable salt:
Na Cl saturated solution 75.3% RH/25° C. 74.8% RH/37° C.
KNO3 saturated solution 93.7% RH/25° C. 90.0% RH/37° C.
At the end of the experiment, after completing the hysteresis, that is the adsorption--desorption cycle of humidity, the compound was assayed for the title and degradation products by TLC and HPLC, the physical state by DSC and water content by TGA.

[6] = Moisture content during tablet manufacturing (mixing and tableting); details: hydrochloride monohydrate; for Moisture content: % on the weight of compound 1a
Source text: As a consequence, storage of compound 2a may be effected in normal conditions and no particular precautions are needed to avoid exposure to moisture. The titer of compound 2a, when it is stored in normal conditions, is therefore maintained at difference with compound 1a which, in the same conditions, may show different titles according to the water content. The hygroscopicity may also influence the drug title immediately after the manufacturing of tablets. In fact during the process of manufacturing the drug exposed at normal ambient conditions where it can take up moisture.

% degradation ([1]; 1 month/55° C., 43200 min): 0.5%
% degradation ([1]; 3 months/40° C.-75% RH, 129600 min): 0.5%
% degradation ([1]; 3 months/55° C., 129600 min): 1.6%
% degradation ([1]; 6 months/40° C.-75% RH, 259200 min): 1.0%
stability in tablets and capsules ([1]; accelerated tests, in comparison with compounds 1a and 1b, in words): better stability
particle size reduction (milling efficiency) ([3]; Mercury Porosimetry Analysis, in words): same rank order
stability to milling ([3]; in words, in comparison with the anhydrous form): unexpected better stability to milling
percentage of degradation products after milling ([3]; rotor speed of 20,000 rpm, hydrochloride monohydrate): 0.0%
% degradation ([4]; 3 months/40° C., 129600 min): 0.4%
% degradation ([4]; 6 months/30° C.-70% RH, 259200 min): 0.1%
% degradation ([4]; 6 months/40° C., 259200 min): 0.6%
stability in tablets and capsules ([4]; long term real time tests, in comparison with compounds 1a and 1b, in words): better stability
water content in conditions of extreme dryness ([5]; 11 RH, 37° C., in words): not affected
water content (Table V) ([5]; 37° C., 2 h): 5.32%
water content (Table V) ([5]; 37° C., 4 h): 5.31%
water content (Table V) ([5]; 37° C., 6 h): 5.31%
water content (Table V) ([5]; 37° C., 21 days): 5.29%
water content (Table V) ([5]; 37° C., time 0): 5.26%
water content (Table III) ([5]; 37° C., 75% RH, 2 h, hydrochloride monohydrate): 5.8%
water content (Table III) ([5]; 37° C., 75% RH, 4 h, hydrochloride monohydrate): 5.75%
water content (Table III) ([5]; 37° C., 75% RH, 6 h, hydrochloride monohydrate): 5.79%
water content (Table III) ([5]; 37° C., 75% RH, 1 d, hydrochloride monohydrate): 5.75%
water content (Table III) ([5]; 37° C., 75% RH, 5 d, hydrochloride monohydrate): 5.8%
water content (Table III) ([5]; 37° C., 75% RH, 9 d, hydrochloride monohydrate): 5.76%
water content (Table III) ([5]; 37° C., 75% RH, 15 d, hydrochloride monohydrate): 5.8%
water content (Table III) ([5]; 37° C., 94% RH, 2 h, hydrochloride monohydrate): 5.49%
water content (Table III) ([5]; 37° C., 94% RH, 4 h, hydrochloride monohydrate): 5.47%
water content (Table III) ([5]; 37° C., 94% RH, 6 h, hydrochloride monohydrate): 5.53%
water content (Table III) ([5]; 37° C., 94% RH, 1 d, hydrochloride monohydrate): 5.5%
water content (Table III) ([5]; 37° C., 94% RH, 5 d, hydrochloride monohydrate): 5.49%
water content (Table III) ([5]; 37° C., 94% RH, 9 d, hydrochloride monohydrate): 5.48%
water content (Table III) ([5]; 37° C., 94% RH, 15 d, hydrochloride monohydrate): 5.48%
water content (Table III) ([5]; Room Temperature, 75% RH, 2 h, hydrochloride monohydrate): 5.46%
water content (Table III) ([5]; Room Temperature, 75% RH, 4 h, hydrochloride monohydrate): 5.43%
water content (Table III) ([5]; Room Temperature, 75% RH, 6 h, hydrochloride monohydrate): 5.37%
water content (Table III) ([5]; Room Temperature, 75% RH, 1 d, hydrochloride monohydrate): 5.41%
water content (Table III) ([5]; Room Temperature, 75% RH, 4 d, hydrochloride monohydrate): 5.42%
water content (Table III) ([5]; Room Temperature, 75% RH, 8 d, hydrochloride monohydrate): 5.36%
water content (Table III) ([5]; Room Temperature, 75% RH, 20 d, hydrochloride monohydrate): 5.41%
water content (Table III) ([5]; Room Temperature, 94% RH, 2 h, hydrochloride monohydrate): 5.49%
water content (Table III) ([5]; Room Temperature, 94% RH, 4 h, hydrochloride monohydrate): 5.53%
water content (Table III) ([5]; Room Temperature, 94% RH, 6 h, hydrochloride monohydrate): 5.51%
water content (Table III) ([5]; Room Temperature, 94% RH, 1 d, hydrochloride monohydrate): 5.49%
water content (Table III) ([5]; Room Temperature, 94% RH, 4 d, hydrochloride monohydrate): 5.44%
water content (Table III) ([5]; Room Temperature, 94% RH, 8 d, hydrochloride monohydrate): 5.48%
water content (Table III) ([5]; Room Temperature, 94% RH, 20 d, hydrochloride monohydrate): 5.49%
stability in condition of storage ([5]; different temperatures and relative humidity, in words): stable
moisture absorption ([5]; different temperatures and relative humidity, in words, hydrochloride monohydrate): do not absorb moisture
Moisture content ([6]; Final (b), tableting): 4.90%
Moisture content ([6]; Intermediate (a), mixing): 4.90%
Moisture content ([6]; Start): 4.90%
water content during manufacturing ([6]; mixing (a) and tableting (b) phases, in words): stable water content
SMILES: CN1C2CCC1CC(NC(=O)n1c(=O)[nH]c3ccccc31)C2 (stereo not drawn) [Compound 2a, Endo-2,3-dihydro-N-(8-methyl-8-azabicyclo[3.2.1]oct-3-yl)-2-oxo-1H-benzimidazole-1-carboxamide, hydrochloride monohydrate]
loss of water content on desiccation [2]: without any appreciable loss of water content
